Test systems include HL-60(TB) leukemia; MALME-3M melanoma; LOX IMVI melanoma; CCRF-CEM leukemia; U251 CNS; SNB-19 CNS; OVCAR-5 ovarian; CAKI-1 renal; SK-MEL-2 melanoma; SNB-75 CNS.
What all share (test): NCI tumour cell line growth inhibition, 48 h

Each structure is given as a SMILES string.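 Growth conditions: 96-well plates. Treatment: test compound, 48 hours, 5 concentrations. Analysis: linear interpolation between bracketing concentrations; unreached endpoints set to highest concentration. GI50 is the concentration that inhibits growth by half. At the TGI there is no net growth.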 A value given as a limit tells only on which side of the number the result lay.

Turning to `O=C(NN1C(=O)CSC1c1ccc(Cl)cc1)c1[nH]c2ccc(F)cc2c1-c1ccccc1` (stereo not given), the GI50 in the test on HL-60(TB) leukemia was 2.75 µM; in the test with MALME-3M melanoma, 6.03 µM; with LOX IMVI melanoma it was 2.65 µM; with CCRF-CEM leukemia it was 2.17 µM; in the test on U251 CNS it was 3.14 µM; with SNB-19 CNS it was 3.79 µM. For the same molecule, the GI50 in the test on OVCAR-5 ovarian was 2.64 µM; with CAKI-1 renal it was 5.07 µM; in the test on SK-MEL-2 melanoma, 9.61 µM; in the test on SNB-75 CNS, 5.04 µM. The TGI in the test on HL-60(TB) leukemia is 7.71 µM; with MALME-3M melanoma, above 42.8 µM; in the test with LOX IMVI melanoma, 7.18 µM; in the test on CCRF-CEM leukemia it was 5.85 µM; in the test with U251 CNS, 8.38 µM; in the test with SNB-19 CNS, 15.5 µM. Further, the TGI in the test on OVCAR-5 ovarian came out at 8.34 µM; with CAKI-1 renal, 17.2 µM; in the test on SK-MEL-2 melanoma, 26.3 µM; in the test with SNB-75 CNS, 21 µM.
Turning to `COc1cc(/C=C(/c2ccccc2)[N+](=O)[O-])c(OC)c2c1OCO2`, the GI50 with HL-60(TB) leukemia is 1.79 µM; in the test on MALME-3M melanoma, 1.53 µM; with LOX IMVI melanoma, 1.14 µM; in the test on CCRF-CEM leukemia, 0.522 µM; in the test with U251 CNS, 1.52 µM; in the test with SNB-19 CNS, 1.58 µM. In addition, the GI50 is 1.76 µM with OVCAR-5 ovarian, 1.76 µM in the test on CAKI-1 renal, 1.85 µM in the test on SK-MEL-2 melanoma and 0.539 µM in the test with SNB-75 CNS. In addition, the TGI in the test on HL-60(TB) leukemia is 5.64 µM; in the test with MALME-3M melanoma, 3.21 µM; in the test with LOX IMVI melanoma, 2.44 µM; in the test with CCRF-CEM leukemia it was above 100 µM; in the test with U251 CNS it was 3.05 µM; with SNB-19 CNS it was 2.95 µM. The TGI is 3.58 µM in the test on OVCAR-5 ovarian, 3.95 µM with CAKI-1 renal, 4 µM with SK-MEL-2 melanoma and 2.04 µM with SNB-75 CNS.
In the case of `Cn1cc(-c2ccc3c(c2)CCN3C(=O)Cc2cccc(C(F)(F)F)c2)c2c(N)ncnc21`, the GI50 in the test on HL-60(TB) leukemia is 5.39 µM; with MALME-3M melanoma it was 2.03 µM; in the test with LOX IMVI melanoma, 3.12 µM; in the test with CCRF-CEM leukemia, 3.94 µM; with U251 CNS it was 2.69 µM; in the test with SNB-19 CNS it was 7.06 µM. For the same molecule, the GI50 with OVCAR-5 ovarian is 12.2 µM; in the test with CAKI-1 renal, 1.52 µM; with SK-MEL-2 melanoma, 4.62 µM; in the test with SNB-75 CNS it was 2.76 µM. The TGI in the test on HL-60(TB) leukemia was 33 µM; with MALME-3M melanoma, 13.3 µM; in the test on LOX IMVI melanoma it was 16.3 µM; with CCRF-CEM leukemia it was above 100 µM; in the test with U251 CNS it was 17.7 µM; with SNB-19 CNS, 22.9 µM. Besides, the TGI in the test on OVCAR-5 ovarian was determined as 30.2 µM; in the test on CAKI-1 renal, 40.3 µM; in the test on SK-MEL-2 melanoma it was 28.6 µM; in the test with SNB-75 CNS, 19 µM.
For `COc1cc2cc(Oc3ccc(NC(=O)c4ccc(Cl)c(C(F)(F)F)c4)cc3)c(C)nc2cc1OC`, the GI50 was 20.8 µM with HL-60(TB) leukemia; 28.6 µM in the test on MALME-3M melanoma; 7.59 µM with LOX IMVI melanoma; 7.56 µM with CCRF-CEM leukemia; 8.72 µM in the test on U251 CNS; 24.6 µM in the test on SNB-19 CNS. In addition, the GI50 was 55.9 µM with OVCAR-5 ovarian, 4.19 µM in the test on CAKI-1 renal, 18.3 µM in the test with SK-MEL-2 melanoma and 16.4 µM with SNB-75 CNS. Further, the TGI was 82 µM in the test with HL-60(TB) leukemia; 95.1 µM with MALME-3M melanoma; above 100 µM with LOX IMVI melanoma; above 100 µM with CCRF-CEM leukemia; above 100 µM in the test on U251 CNS; above 100 µM in the test with SNB-19 CNS. Further, the TGI with OVCAR-5 ovarian was above 100 µM; with CAKI-1 renal, 46.2 µM; with SK-MEL-2 melanoma, 51.1 µM; in the test with SNB-75 CNS, above 100 µM.
In the case of `CCc1c[nH]c2ncnc(N3CC[C@@](N)(CNC(=O)c4ccc(F)cc4F)C3)c12`, the GI50 in the test with HL-60(TB) leukemia is 38.7 µM; in the test on MALME-3M melanoma, 33.4 µM; with LOX IMVI melanoma, 31.1 µM; in the test on CCRF-CEM leukemia, 28.3 µM; with U251 CNS, 46.4 µM; with SNB-19 CNS it was 44.8 µM. The GI50 was 80 µM in the test with OVCAR-5 ovarian, 18.7 µM with CAKI-1 renal, 35.5 µM in the test with SK-MEL-2 melanoma and 16.3 µM with SNB-75 CNS. Moreover, the TGI was above 100 µM in the test with HL-60(TB) leukemia; above 91.2 µM in the test on MALME-3M melanoma; above 100 µM in the test with LOX IMVI melanoma; above 96.4 µM with CCRF-CEM leukemia; above 100 µM with U251 CNS; above 100 µM in the test with SNB-19 CNS. Moreover, the TGI was above 100 µM with OVCAR-5 ovarian, above 89.8 µM in the test on CAKI-1 renal, above 100 µM in the test on SK-MEL-2 melanoma and 77.5 µM with SNB-75 CNS.
`COC(=O)[C@@H]1CCCN1C(=O)[C@@H]1CCCN1C(=O)[C@@H](Cc1c[nH]c2ccccc12)NC(=S)Nc1cc(C(F)(F)F)cc(C(F)(F)F)c1`: the GI50 in the test on HL-60(TB) leukemia is 4.26 µM; with MALME-3M melanoma, 5.17 µM; in the test with LOX IMVI melanoma, 1.89 µM; with CCRF-CEM leukemia, 3.39 µM; in the test on U251 CNS, 4.31 µM; in the test with SNB-19 CNS, 16.2 µM. Moreover, the GI50 with OVCAR-5 ovarian was 15 µM; with CAKI-1 renal it was 16.9 µM; in the test with SK-MEL-2 melanoma it was 2.49 µM; with SNB-75 CNS it was 1.91 µM. The TGI was above 100 µM with HL-60(TB) leukemia; 24.7 µM in the test with MALME-3M melanoma; 4.38 µM in the test with LOX IMVI melanoma; above 100 µM in the test with CCRF-CEM leukemia; 95.3 µM in the test with U251 CNS; above 100 µM in the test with SNB-19 CNS. The TGI in the test on OVCAR-5 ovarian was 73 µM; with CAKI-1 renal, above 100 µM; in the test with SK-MEL-2 melanoma, 5.11 µM; with SNB-75 CNS, above 100 µM.
On to `C=C[C@]1(C)C=C2C(=O)[C@@]3(O)OC[C@@]4(CCCC(C)(C)C43O)C2(O)C(O)C1` (stereo not given in full), for which the GI50 with HL-60(TB) leukemia is 3.41 µM; with MALME-3M melanoma, 1.36 µM; in the test on LOX IMVI melanoma, 1.96 µM; with CCRF-CEM leukemia it was 1.83 µM; in the test with U251 CNS, 13.6 µM; in the test on SNB-19 CNS, 23.3 µM. In addition, the GI50 in the test with OVCAR-5 ovarian is 12.1 µM; in the test on CAKI-1 renal, 2.38 µM; with SK-MEL-2 melanoma, 12.4 µM; with SNB-75 CNS it was 3.51 µM. For the same molecule, the TGI in the test with HL-60(TB) leukemia is 13 µM; in the test with MALME-3M melanoma, 3.02 µM; with LOX IMVI melanoma it was 6.48 µM; with CCRF-CEM leukemia, 16.5 µM; with U251 CNS, 28.1 µM; in the test with SNB-19 CNS, above 69 µM. The TGI in the test with OVCAR-5 ovarian worked out at 25.9 µM; with CAKI-1 renal it was 7.71 µM; in the test on SK-MEL-2 melanoma, 27.4 µM; in the test on SNB-75 CNS, 14 µM.

Source of the values: PubChem BioAssay (NCI).
